Source: US8883766B2, “Ion channel modulators and methods of use” (Vertex Pharmaceuticals Incorporated, priority 2007, dated 2014)
Where two headings read alike, the source gives them in different places.

Columns and labels:
NaV1.3 [1] = target: T1, NaV1.3 (Homo sapiens, UniProt Q9NY46); experiment: VIPR optical membrane potential assay with electrical stimulation, HEK293 cells stably expressing NaV1.3; assay type: cell-based; conditions: compound activity for the NaV1.3 receptors
T1 construct: expressed in transfected cells
T1 sequence (Q9NY46 whole entry): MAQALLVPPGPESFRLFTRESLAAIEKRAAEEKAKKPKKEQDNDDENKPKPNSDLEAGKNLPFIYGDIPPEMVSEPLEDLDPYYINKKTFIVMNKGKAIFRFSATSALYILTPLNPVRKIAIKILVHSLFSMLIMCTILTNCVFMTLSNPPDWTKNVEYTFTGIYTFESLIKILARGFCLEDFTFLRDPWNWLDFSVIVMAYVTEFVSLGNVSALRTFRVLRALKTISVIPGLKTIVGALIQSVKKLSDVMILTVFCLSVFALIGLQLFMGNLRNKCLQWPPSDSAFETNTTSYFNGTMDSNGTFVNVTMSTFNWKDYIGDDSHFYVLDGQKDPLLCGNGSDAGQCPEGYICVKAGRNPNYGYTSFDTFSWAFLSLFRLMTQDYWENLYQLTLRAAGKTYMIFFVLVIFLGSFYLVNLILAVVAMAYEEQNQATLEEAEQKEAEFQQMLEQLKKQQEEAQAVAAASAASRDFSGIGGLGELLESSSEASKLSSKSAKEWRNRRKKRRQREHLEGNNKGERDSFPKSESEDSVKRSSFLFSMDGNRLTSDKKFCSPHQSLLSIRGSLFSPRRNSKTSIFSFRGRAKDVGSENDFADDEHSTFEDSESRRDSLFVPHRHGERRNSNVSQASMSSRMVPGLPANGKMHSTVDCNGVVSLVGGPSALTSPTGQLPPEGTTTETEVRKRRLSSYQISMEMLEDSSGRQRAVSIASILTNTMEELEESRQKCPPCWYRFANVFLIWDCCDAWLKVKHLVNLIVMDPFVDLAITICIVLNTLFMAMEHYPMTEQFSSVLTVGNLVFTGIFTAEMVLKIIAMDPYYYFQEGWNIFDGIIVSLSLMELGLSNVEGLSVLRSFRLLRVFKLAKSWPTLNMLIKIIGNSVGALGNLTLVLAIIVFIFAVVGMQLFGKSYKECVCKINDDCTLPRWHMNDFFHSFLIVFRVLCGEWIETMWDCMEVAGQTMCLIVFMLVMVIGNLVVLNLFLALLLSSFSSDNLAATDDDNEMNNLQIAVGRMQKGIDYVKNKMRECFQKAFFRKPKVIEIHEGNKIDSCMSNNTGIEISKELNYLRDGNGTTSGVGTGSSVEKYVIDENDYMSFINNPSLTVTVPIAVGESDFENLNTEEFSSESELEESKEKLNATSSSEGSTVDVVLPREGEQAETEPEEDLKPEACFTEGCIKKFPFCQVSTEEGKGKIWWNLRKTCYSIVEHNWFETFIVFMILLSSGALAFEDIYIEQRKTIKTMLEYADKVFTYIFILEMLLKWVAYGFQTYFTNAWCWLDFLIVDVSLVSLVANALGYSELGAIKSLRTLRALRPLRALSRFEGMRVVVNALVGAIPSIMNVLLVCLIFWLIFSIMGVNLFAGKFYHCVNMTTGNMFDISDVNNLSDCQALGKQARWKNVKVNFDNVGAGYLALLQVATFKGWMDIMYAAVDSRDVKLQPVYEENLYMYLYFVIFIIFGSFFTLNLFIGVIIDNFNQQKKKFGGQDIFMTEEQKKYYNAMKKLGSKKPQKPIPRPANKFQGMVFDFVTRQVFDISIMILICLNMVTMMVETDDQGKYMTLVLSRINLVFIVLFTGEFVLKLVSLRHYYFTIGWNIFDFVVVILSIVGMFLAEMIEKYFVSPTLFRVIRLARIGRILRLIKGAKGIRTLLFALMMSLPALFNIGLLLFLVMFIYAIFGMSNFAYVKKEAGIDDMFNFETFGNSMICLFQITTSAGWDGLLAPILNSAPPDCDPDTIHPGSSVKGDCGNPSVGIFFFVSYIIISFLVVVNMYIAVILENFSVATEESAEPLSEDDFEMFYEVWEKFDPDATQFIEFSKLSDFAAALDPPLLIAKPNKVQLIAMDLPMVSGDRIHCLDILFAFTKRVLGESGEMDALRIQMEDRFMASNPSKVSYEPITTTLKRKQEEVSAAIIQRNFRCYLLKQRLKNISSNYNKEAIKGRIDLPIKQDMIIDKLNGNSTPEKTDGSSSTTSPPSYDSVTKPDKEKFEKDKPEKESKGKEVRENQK
Protocol: Compounds of the invention are useful as antagonists of voltage-gated sodium ion channels. Antagonist properties of test compounds were assessed as follows. Cells expressing the NaV of interest were placed into microtiter plates. After an incubation period, the cells were stained with fluorescent dyes sensitive to the transmembrane potential. The test compounds were added to the microtiter plate. The cells were stimulated with either chemical or electrical means to evoke a NaV dependent membrane potential change from unblocked channels, which was detected and measured with trans-membrane potential-sensitive dyes. Antagonists were detected as a decreased membrane potential response to the stimulus. The optical membrane potential assay utilized voltage-sensitive FRET sensors described by Gonzalez and Tsien (See, Gonzalez, J. E. and R. Y. Tsien (1995) “Voltage sensing by fluorescence resonance energy transfer in single cells” Biophys J 69(4): 1272-80, and Gonzalez, J. E. and R. Y. Tsien (1997) “Improved indicators of cell membrane potential that use fluorescence resonance energy transfer” Chem Biol 4(4): 269-77) in combination with instrumentation for measuring fluorescence changes such as the Voltage/Ion Probe Reader (VIPR®) (See, Gonzalez, J. E., K. Oades, et al. (1999) “Cell-based assays and instrumentation for screening ion-channel targets” Drug Discov Today 4(9): 431-439).
The following is an example of how NaV1.3 inhibition activity is measured using the optical membrane potential method #2. Other subtypes are performed in an analogous mode in a cell line expressing the NaV of interest.
HEK293 cells stably expressing NaV1.3 are plated into 96-well microtiter plates. After an appropriate incubation period, the cells are stained with the voltage sensitive dyes CC2-DMPE/DiSBAC2(3) as follows.
2×CC2-DMPE=20 μM CC2-DMPE: 10 mM CC2-DMPE is vortexed with an equivalent volume of 10% pluronic, followed by vortexing in required amount of HBSS containing 10 mM HEPES. Each cell plate will require 5 mL of 2×CC2-DMPE. 50 μL of 2×CC2-DMPE is added to wells containing washed cells, resulting in a 10 μM final staining concentration. The cells are stained for 30 minutes in the dark at RT.
2×DISBAC2(3) with ABSC1=6 μM DISBAC2(3) and 1 mM ABSC1: The required amount of 10 mM DISBAC2(3) is added to a 50 ml conical tube and mixed with 1 μL 10% pluronic for each mL of solution to be made and vortexed together. Then HBSS/HEPES is added to make up 2× solution. Finally, the ABSC1 is added.
The 2×DiSBAC2(3) solution can be used to solvate compound plates. Note that compound plates are made at 2× drug concentration. Wash stained plate again, leaving residual volume of 50 μL. Add 50 μL/well of the 2×DiSBAC2(3) w/ ABSC1. Stain for 30 minutes in the dark at RT.
The electrical stimulation instrument and methods of use are described in ION Channel Assay Methods PCT/US01/21652, herein incorporated by reference. The instrument comprises a microtiter plate handler, an optical system for exciting the coumarin dye while simultaneously recording the coumarin and oxonol emissions, a waveform generator, a current- or voltage-controlled amplifier, and a device for inserting electrodes in well. Under integrated computer control, this instrument passes user-programmed electrical stimulus protocols to cells within the wells of the microtiter plate.
Use the current-controlled amplifier to deliver stimulation wave pulses for 3 s. Two seconds of pre-stimulus recording are performed to obtain the un-stimulated intensities. Five seconds of post-stimulation recording are performed to examine the relaxation to the resting state.
Data are analyzed and reported as normalized ratios of background-subtracted emission intensities measured in the 460 nm and 580 nm channels. Background intensities are then subtracted from each assay channel. […]

NaV1.3 [2] = target: T1, NaV1.3; conditions: read-out: TTX IC50; cited from earlier work

| Compound | IC50 (NaV1.3 [1]) [µM] | IC50 (NaV1.3 [2]) [µM] |
| --- | --- | --- |
| COC(=O)NS(=O)(=O)c1ccc(NC(=O)CCn2ccc3cc(Cl)ccc32)cc1 [Compound 51] | > 5 | – |
| CCOC(=O)NS(=O)(=O)c1ccc(N2CCN(C(=O)[C@@H](C)N3CCCc4cc(Cl)ccc43)CC2)cc1 [Compound 52] | > 5 | – |
| COC(=O)NS(=O)(=O)c1ccc(N2CC[C@H](N3CCCc4cc(Cl)ccc43)C2=O)cc1 [Compound 53, (S)-methyl 4-(3-(6-chloro-3,4-dihydroquinolin-1(2H)-yl)-2-oxopyrrolidin-1-yl)phenylsulfonylcarbamate] | > 5 | – |
| C[C@H](C(=O)Nc1ccc(S(=O)(=O)NC(=O)NC(C)(C)C)cc1)n1ccc2c(F)cccc21 [Compound 54] | > 5 | – |
| COC(=O)NS(=O)(=O)c1ccc(NC(=O)[C@@H](C)N2CCCc3cc(F)ccc32)cc1 [Compound 55] | > 5 | – |
| COC(=O)NS(=O)(=O)c1ccc(NC(=O)Cc2ccccc2)cc1 [Compound 56] | > 5 | – |
| C[C@H](C(=O)Nc1ccc(S(=O)(=O)NC(=O)N2CCN(C)CC2)cc1)n1ccc2c(F)cccc21 [Compound 57] | > 5 | – |
| COC(=O)NS(=O)(=O)c1ccc(NC(=O)C(C)n2ccc3c(F)cccc32)cc1 (stereo not shown) [Compound 59] | < 2 | – |
| COC(=O)NS(=O)(=O)c1ccc(NC(=O)COc2ccnc3c(C(F)(F)F)cccc23)cc1 [Compound 60] | > 5 | – |
| COC(=O)NS(=O)(=O)c1ccc(N2CCN(C(=O)[C@@H](C)N3CCCc4cc(F)ccc43)CC2)cc1 [Compound 61, (R)-methyl 4-(4-(2-(6-fluoro-3,4-dihydroquinolin-1(2H)-yl)propanoyl)piperazin-1-yl)phenylsulfonylcarbamate] | > 5 | – |
| COC(=O)NS(=O)(=O)c1ccc(NC(=O)[C@@H](C)N2CCCc3cccc(Cl)c32)cc1 [Compound 62] | > 5 | – |
| C[C@H](C(=O)Nc1ccc(S(=O)(=O)NC(N)=O)cc1)n1ccc2c(F)cccc21 [Compound 63] | 2 to 5 | – |
| COC(=O)NS(=O)(=O)c1ccc(NC(=O)COc2ccc(Cl)c(Cl)c2)cc1 [Compound 64] | > 5 | – |
| COC(=O)NS(=O)(=O)c1ccc(NC(=O)[C@H](C)Oc2cccc(Cl)c2Cl)cc1 [Compound 65] | > 5 | – |
| Cc1cc(C(=O)NS(=O)(=O)c2ccc(NC(=O)[C@@H](C)n3ccc4c(F)cccc43)cc2)c(C)o1 [Compound 66, (R)—N-(4-(2-(4-fluoro-1H indol-1-yl)propanamido)phenylsulfonyl)-2,5-dimethylfuran-3-carboxamide] | > 5 | – |
| COC(=O)NS(=O)(=O)c1ccc(NC(=O)[C@H](C)N2CCCc3cc(F)ccc32)cc1 [Compound 67] | > 5 | – |
| COC(=O)NS(=O)(=O)c1ccc(NC(=O)[C@H](C)n2ccc3cccc(F)c32)cc1 [Compound 68] | > 5 | – |
| COC(=O)NS(=O)(=O)c1ccc(NC(=O)Cn2ccc3cccc(F)c32)cc1 [Compound 69] | > 5 | – |
| COC(=O)NS(=O)(=O)c1ccc(NC(=O)Cn2ccc3ccc(Cl)cc32)cc1 [Compound 70] | > 5 | – |

| Compound | IC50 (NaV1.3 [1]) [µM] | IC50 (NaV1.3 [2]) [µM] |
| --- | --- | --- |
| CCC(=O)NS(=O)(=O)c1ccc(NC(=O)COc2ccnc3c(C(F)(F)F)cccc23)cc1 [Compound 71] | > 5 | – |
| COC(=O)NS(=O)(=O)c1ccc(NC(=O)[C@@H](CO)N2CCCc3cc(Cl)ccc32)cc1 [Compound 73] | > 5 | – |
| C[C@H](C(=O)Nc1ccc(S(=O)(=O)NC(=O)c2ccccc2)cc1)n1ccc2c(F)cccc21 [Compound 74, (R)—N-(4-(2-(4-fluoro-1H indol-1-yl)propanamido)phenylsulfonyl)benzamide] | > 5 | – |
| COC(=O)NS(=O)(=O)c1ccc(NC(=O)[C@H](C)N2CCCc3cc(Cl)ccc32)cc1 [Compound 75] | > 5 | – |
| CCC#CCOC(=O)NS(=O)(=O)c1ccc(NC(=O)[C@@H](C)n2ccc3c(F)cccc32)cc1 [Compound 76] | > 5 | – |
| COC(=O)NS(=O)(=O)c1ccc(NC(=O)[C@H](CC(C)C)n2ccc3c(F)cccc32)cc1 [Compound 77] | > 5 | – |
| COC(=O)NS(=O)(=O)c1ccc(NC(=O)[C@@H](C)Oc2ccc(Cl)cc2C)cc1 [Compound 78] | > 5 | – |
| CCCCNC(=O)NS(=O)(=O)c1ccc(NC(=O)[C@@H](C)n2ccc3c(F)cccc32)cc1 [Compound 79] | > 5 | – |
| COC(=O)NS(=O)(=O)c1ccc(NC(=O)[C@H](C)n2ccc3ccc(Cl)cc32)cc1 [Compound 80] | > 5 | – |
| COC(=O)NS(=O)(=O)c1ccc(NC(=O)c2cc3c(F)cc(Cl)cc3[nH]2)cc1 [Compound 81] | > 5 | – |
| CC(=O)NS(=O)(=O)c1ccc(NC(=O)[C@@H](C)n2ccc3c(F)cccc32)cc1 [Compound 82] | > 5 | – |
| COC(=O)NS(=O)(=O)c1ccc(NC(=O)Cn2cc(C)c3cc(Cl)ccc32)cc1 [Compound 83] | > 5 | – |
| COC(=O)NS(=O)(=O)c1ccc(NC(=O)[C@H](C)N2CCCc3ccccc32)cc1 [Compound 84] | > 5 | – |
| COC(=O)NS(=O)(=O)c1ccc(NC(=O)C(C)(C)n2ccc3c(F)cccc32)cc1 [Compound 85] | > 5 | – |
| COC(=O)NS(=O)(=O)c1ccc(NC(=O)[C@@H](CC(C)C)N2CCCc3cc(Cl)ccc32)cc1 [Compound 86] | 2 to 5 | – |
| COC(=O)NS(=O)(=O)c1ccc(NC(=O)[C@@H](C)n2ccc3ccc(C(F)(F)F)cc32)cc1 [Compound 87, (R)-methyl 4-(2-(6-(trifluoromethyl)-1H-indol-1-yl)propanamido)phenylsulfonylcarbamate] | < 2 | – |
| COC(=O)NS(=O)(=O)c1ccc(NC(=O)c2ccc(OC)cc2)cc1 [Compound 88] | > 5 | – |
| NC1=N[C@H](O)[C@H]2[C@H]3O[C@]4(O)O[C@@H]([C@@H](O)[C@@]2(N1)[C@@H]4O)[C@]3(O)CO [TTX, tetrodotoxin] | – | 0.015 |
